# According to patent US11717508B2, “Compounds, compositions, and methods for inhibiting bacterial growth” (priority 2016, dated 2023):
# “And” between values parts separate entries of the source, which are not always exact repeats. Equal values may be shown once. Read-outs that look alike come from different tables or passages of the source.
# Tested on: DosRST regulon
# Assay type: cell-based
# Conditions: for Counts per million (CPM) WT_HC103A: replicates 1, 2
smiles,measurement,setting,value
"O=C(Nc1cccc(O)c1)c1cccc(NC(=O)c2cccs2)c1 [HC103A, N-[3-[(3 hydroxyphenyl)carbamoyl]phenyl]thiophene-2-carboxamide]",genes downregulated by compound (total),"40 μM, 6 days, >2-fold, p<0.05",90 genes
same,downregulation of tgs1 gene (transcriptional profiling),"CDC1551, 40 μM, 6 days",~180 fold
same,WT DMSO/WT HC103A fold change,gene MT36S5 Rv3551,0.4042
same,log2 Fold change,gene MT36S5 Rv3551,−1.307
same,WT DMSO/WT HC103A fold change,gene MT0086 Rv0079,0.2341
same,log2 Fold change,gene MT0086 Rv0079,−2.095
same,WT DMSO/WT HC103A fold change,gene MT0087 Rv0080,0.2783
same,log2 Fold change,gene MT0087 Rv0080,−1.845
same,WT DMSO/WT HC103A fold change,gene MT0207 Rv0197,3.65
same,log2 Fold change,gene MT0207 Rv0197,1.868
same,WT DMSO/WT HC103A fold change,gene MT0337 Rv0322 udgA,2.459
same,log2 Fold change,gene MT0337 Rv0322 udgA,1.298
same,WT DMSO/WT HC103A fold change,gene MT0468 Rv0452,2.465
same,log2 Fold change,gene MT0468 Rv0452,1.301
same,WT DMSO/WT HC103A fold change,gene MT0491 Rv0474,2.323
same,log2 Fold change,gene MT0491 Rv0474,1.216
same,WT DMSO/WT HC103A fold change,gene MT0585 Rv0559c,5.989
same,log2 Fold change,gene MT0585 Rv0559c,2.582
same,WT DMSO/WT HC103A fold change,gene MT0586 Rv0560c,282
same,log2 Fold change,gene MT0586 Rv0560c,8.139
same,WT DMSO/WT HC103A fold change,gene MT0595 Rv0569,0.1236
same,log2 Fold change,gene MT0595 Rv0569,−3.016
same,WT DMSO/WT HC103A fold change,gene MT0596 Rv0570 nrdZ,0.02807
same,log2 Fold change,gene MT0596 Rv0570 nrdZ,−5.155
same,Counts per million (CPM) WT_HC103A,gene MT0596 Rv0570 nrdZ,73.81 CPM and 59.09 CPM
same,WT DMSO/WT HC103A fold change,gene MT0597 Rv0571c,0.1705
same,log2 Fold change,gene MT0597 Rv0571c,−2.552
same,Counts per million (CPM) WT_HC103A,gene MT0597 Rv0571c,71.16 CPM and 45.13 CPM
same,WT DMSO/WT HC103A fold change,gene MT0598,0.1036
same,log2 Fold change,gene MT0598,−3.27
same,Counts per million (CPM) WT_HC103A,gene MT0598,38.26 CPM and 19.74 CPM
same,WT DMSO/WT HC103A fold change,gene MT0599 Rv0572c,0.05128
same,log2 Fold change,gene MT0599 Rv0572c,−4.028
same,Counts per million (CPM) WT_HC103A,gene MT0599 Rv0572c,49.68 CPM and 34.61 CPM
same,WT DMSO/WT HC103A fold change,gene MT0600,0.02301
same,log2 Fold change,gene MT0600,−5.442
same,Counts per million (CPM) WT_HC103A,gene MT0600,44.59 CPM and 9.221 CPM
same,WT DMSO/WT HC103A fold change,gene MT0601 Rv0573c,0.1124
same,log2 Fold change,gene MT0601 Rv0573c,−3.153
same,Counts per million (CPM) WT_HC103A,gene MT0601 Rv0573c,11.49 CPM and 9.546 CPM
same,WT DMSO/WT HC103A fold change,gene MT0602 Rv0574c,0.05787
same,log2 Fold change,gene MT0602 Rv0574c,−4.111
same,Counts per million (CPM) WT_HC103A,gene MT0602 Rv0574c,26.39 CPM and 16.69 CPM
same,WT DMSO/WT HC103A fold change,gene MT0808 Rv0784,4.409
same,log2 Fold change,gene MT0808 Rv0784,2.141
same,WT DMSO/WT HC103A fold change,gene MT0846 Rv0824c desA1,0.3753
same,log2 Fold change,gene MT0846 Rv0824c desA1,−1.414
same,Counts per million (CPM) WT_HC103A,gene MT0846 Rv0824c desA1,"2,581.69 CPM and 3,416.39 CPM"
same,WT DMSO/WT HC103A fold change,gene MT0910 Rv0887c,2.543
same,log2 Fold change,gene MT0910 Rv0887c,1.346
same,WT DMSO/WT HC103A fold change,gene MT1095 Rv1065,0.3758
same,log2 Fold change,gene MT1095 Rv1065,−1.412
same,Counts per million (CPM) WT_HC103A,gene MT1095 Rv1065,198.5 CPM and 168.6 CPM
same,WT DMSO/WT HC103A fold change,gene MT1126 Rv1094 desA2,0.3586
same,log2 Fold change,gene MT1126 Rv1094 desA2,−1.44
same,Counts per million (CPM) WT_HC103A,gene MT1126 Rv1094 desA2,"2,249.03 CPM and 2,771.69 CPM"
same,WT DMSO/WT HC103A fold change,gene MT1294 Rv1255c,3.371
same,log2 Fold change,gene MT1294 Rv1255c,1.753
same,WT DMSO/WT HC103A fold change,gene MT1322 Rv1284,0.3386
same,log2 Fold change,gene MT1322 Rv1284,−1.562
same,Counts per million (CPM) WT_HC103A,gene MT1322 Rv1284,223.7 CPM and 205.3 CPM
same,WT DMSO/WT HC103A fold change,gene MT1608 Rv1557 mmpL6,8.81
same,log2 Fold change,gene MT1608 Rv1557 mmpL6,3.139
same,WT DMSO/WT HC103A fold change,gene MT1692 Rv1654 argB,0.2745
same,log2 Fold change,gene MT1692 Rv1654 argB,−1.865
same,Counts per million (CPM) WT_HC103A,gene MT1692 Rv1654 argB,176.3 CPM and 60.13 CPM
same,WT DMSO/WT HC103A fold change,gene MT1693 Rv1655 argD,0.2592
same,log2 Fold change,gene MT1693 Rv1655 argD,−1.948
same,Counts per million (CPM) WT_HC103A,gene MT1693 Rv1655 argD,135.1 CPM and 51.69 CPM
same,WT DMSO/WT HC103A fold change,gene MT1694 Rv1656 argF,0.214
same,log2 Fold change,gene MT1694 Rv1656 argF,−2.224
same,Counts per million (CPM) WT_HC103A,gene MT1694 Rv1656 argF,115.2 CPM and 42.01 CPM
same,WT DMSO/WT HC103A fold change,gene MT1774 Rv1733c,0.01521
same,log2 Fold change,gene MT1774 Rv1733c,−6.039
same,Counts per million (CPM) WT_HC103A,gene MT1774 Rv1733c,40.51 CPM and 8.961 CPM
same,WT DMSO/WT HC103A fold change,gene MT1775,0.1012
same,log2 Fold change,gene MT1775,−3.305
same,Counts per million (CPM) WT_HC103A,gene MT1775,101.9 CPM and 24.16 CPM
same,WT DMSO/WT HC103A fold change,gene MT1776 Rv1735c,0.2125
same,log2 Fold change,gene MT1776 Rv1735c,−2.234
same,Counts per million (CPM) WT_HC103A,gene MT1776 Rv1735c,4.991 CPM and 2.922 CPM
same,WT DMSO/WT HC103A fold change,gene MT1777,0.02322
same,log2 Fold change,gene MT1777,−5.428
same,Counts per million (CPM) WT_HC103A,gene MT1777,5.142 CPM and 2.013 CPM
same,WT DMSO/WT HC103A fold change,gene MT1778 Rv1736c narX,0.0157
same,log2 Fold change,gene MT1778 Rv1736c narX,−5.993
same,Counts per million (CPM) WT_HC103A,gene MT1778 Rv1736c narX,122.3 CPM and 26.17 CPM
same,WT DMSO/WT HC103A fold change,gene MT1779 Rv1737c narK2,0.01434
same,log2 Fold change,gene MT1779 Rv1737c narK2,−6.124
same,Counts per million (CPM) WT_HC103A,gene MT1779 Rv1737c narK2,36.9 CPM and 14.55 CPM
same,WT DMSO/WT HC103A fold change,gene MT1780 Rv1738,0.01855
same,log2 Fold change,gene MT1780 Rv1738,−5.752
same,Counts per million (CPM) WT_HC103A,gene MT1780 Rv1738,133.5 CPM and 33.12 CPM
same,WT DMSO/WT HC103A fold change,gene MT1823 (Rv1773c),0.36
same,log2 Fold change,gene MT1823 (Rv1773c),−1.434
same,Counts per million (CPM) WT_HC103A,gene MT1823 Rv1773c,222.7 CPM and 163.7 CPM
same,WT DMSO/WT HC103A fold change,gene MT1851 Rv1813c,0.01771
same,log2 Fold change,gene MT1851 Rv1813c,−5.819
same,Counts per million (CPM) WT_HC103A,gene MT1851 Rv1813c,58.53 CPM and 24.74 CPM
same,WT DMSO/WT HC103A fold change,gene MT1860 Rv1812c,0.3778
same,log2 Fold change,gene MT1860 Rv1812c,−1.404
same,Counts per million (CPM) WT_HC103A,gene MT1860 Rv1812c,78.19 CPM and 78.7 CPM
same,WT DMSO/WT HC103A fold change,gene MT1882 (Rv1834),0.3504
same,log2 Fold change,gene MT1882 (Rv1834),−1.472
same,Counts per million (CPM) WT_HC103A,gene MT1882 Rv1834,28.36 CPM and 29.22 CPM
same,WT DMSO/WT HC103A fold change,gene MT1986 (Rv1936),0.2546
same,log2 Fold change,gene MT1986 (Rv1936),−1.918
same,Counts per million (CPM) WT_HC103A,gene MT1986 Rv1936,72.29 CPM and 31.56 CPM
same,WT DMSO/WT HC103A fold change,gene MT1987 (Rv1937),0.2435
same,log2 Fold change,gene MT1987 (Rv1937),−2.038
same,Counts per million (CPM) WT_HC103A,gene MT1987 Rv1937,83.71 CPM and 36.75 CPM
same,WT DMSO/WT HC103A fold change,gene MT1988 Rv1938 ephB,0.2508
same,log2 Fold change,gene MT1988 Rv1938 ephB,−1.995
same,Counts per million (CPM) WT_HC103A,gene MT1988 Rv1938 ephB,32.14 CPM and 15.97 CPM
same,WT DMSO/WT HC103A fold change,gene MT1989 (Rv1939),0.2883
same,log2 Fold change,gene MT1989 (Rv1939),−1.794
same,Counts per million (CPM) WT_HC103A,gene MT1989 Rv1939,16.33 CPM and 8.831 CPM
same,WT DMSO/WT HC103A fold change,gene MT2016 (Rv1964),0.2736
same,log2 Fold change,gene MT2016 (Rv1964),−1.87
same,Counts per million (CPM) WT_HC103A,gene MT2016 Rv1964,93.32 CPM and 56.95 CPM
same,WT DMSO/WT HC103A fold change,gene MT2017,0.1841
same,log2 Fold change,gene MT2017,−2.441
same,Counts per million (CPM) WT_HC103A,gene MT2017,44.46 CPM and 29.87 CPM
same,WT DMSO/WT HC103A fold change,gene MT2018 (Rv1966 mce3),0.194
same,log2 Fold change,gene MT2018 (Rv1966 mce3),−2.366
same,Counts per million (CPM) WT_HC103A,gene MT2018 Rv1966 mce3,54.83 CPM and 33.77 CPM
